“And” between values parts separate entries of the source, which are not always exact repeats. Equal values may be shown once.
Columns and labels:
[1] = Hydrodynamic radius and size distribution of micelles by dynamic light scattering (DLS); format: physicochemical; settings: for Rh (nm), hydrodynamic radius of micelles: 1.0 wt % stated for M-/O-XMAs (FIG. 37); for size distribution of micelles (number of micelle sets): FIGS. 36 and 37
Procedure: A method for measuring the radius of a micelle is not particularly limited, but a method well known in the art may be used, and for example, the measurement may be performed using a dynamic light scattering (DLS) experiment.
(§1) Specifically, the critical micellar concentration (CMC) was measured using fluorescence staining and diphenylhexatriene (DPH), and the hydrodynamic radii (Rh) of the micelles formed by agents were measured through a dynamic light scattering (DLS) experiment. The measured results are shown in Tables 1 and 2, compared with a conventional amphiphilic molecule (detergent), DDM.

[2] = molecular target: T1, melibiose permease (MelB) (Salmonella typhimurium, UniProt P30878); assay: MelB extraction from membranes and thermostability, SDS-PAGE and western blotting; settings: for MelBSt stabilization ability compared with DDM: 1.5 wt % detergent, 0, 45, 55 and 65° C.
T1 construct: made in house; host or cells: Salmonella typhimurium DW2 cells (ΔmelB and ΔlacZY) (so in the source); membrane preparation
Procedure: An experiment for measuring the structural stability of the Salmonella typhimurium melibiose permease (MelB) protein due to XMAs was performed. The MelB protein was extracted on a membrane using XMAs and DDM, and the amount and structure of the extracted protein were analyzed by SDS-PAGE and western blotting. A concentration of the used compound was 1.5 wt %, and the protein was extracted at a different temperature (0, 45, 55, or 65° C.) to evaluate two kinds of performance such as protein extraction efficiency and stabilization ability of the compound at the same time. Membrane samples that were not treated with XMAs or DDM were used as controls.
Specifically, MelBSt stability due to DDM and XMAs was evaluated according to the method described in the paper (P. S. Chae, et al., Nat. Methods 2010, 7, 1003-1008) written by the inventor in 2010. The protein (MelBSt) was produced using plasmid pK95ΔAHB/WT MelBSt/CH10 encoding wild-type MelB with a 10-His tag at the C-terminus and Salmonella typhimurium DW2 cells (ΔmelB and ΔlacZY). Cell growth and membrane preparation were carried out according to the method described in the paper (Nat. Commun. 2014, 5, 3009) written by A. S. Ethayathulla et al. A protein assay was performed using a Micro BCA kit (Thermo Scientific, Rockford, Ill.). To measure solubilization/stability, MelBSt-containing membrane samples (final protein concentration of 10 mg/mL) were incubated with a solubilization buffer (20 mM sodium phosphate, pH 7.5, 200 mM NaCl, 10% glycerol, 20 mM melibiose) and 1.5% (w/v) DDM, P-XMAs (P-XMA-C8, P-XMA-C9, P-XMA-C10, P-XMA-C11 and P-XMA-C12), M-XMAs (M-XMA-C11, M-XMA-C12, M-XMA-C14, M-XMA-C16 and M-XMA-C18) or O-XMAs (O-XMA-C11, O-XMA-C12, O-XMA-C14, O-XMA-C16 and O-XMA-C18) at four different temperatures (0, 45, 55 and 65° C.) for 90 minutes. Following ultracentrifugation at 355,590 g in a Beckman Optima™ MAX ultracentrifuge using a TLA-100 rotor for 45 minutes at 4° C., 20 μg proteins were separated by SDS-16% PAGE, and then immunoblotted with a Penta-His-HRP antibody (Qiagen, Germantown, Md.). MelBSt was detected using a SuperSignal West Pico chemiluminescent substrate by an ImageQuant LAS 4000 Biomolecular Imager (GE Health Care Life Sciences).

[3] = Critical micelle concentration by fluorescence staining with diphenylhexatriene (DPH); format: physicochemical; settings: aqueous solution
Procedure: While a method for measuring CMC is not particularly limited, a method widely known in the art may be used, and the measurement may be performed by, for example, a fluorescence staining method using diphenylhexatriene (DPH).
as §1

[4] = 1.5 wt % detergent, 55° C., 90 minutes
[5] = 1.5 wt % detergent, 0° C., 90 minutes
[6] = 1.5 wt % detergent, 45° C., 90 minutes

T1 sequence (P30878 whole entry): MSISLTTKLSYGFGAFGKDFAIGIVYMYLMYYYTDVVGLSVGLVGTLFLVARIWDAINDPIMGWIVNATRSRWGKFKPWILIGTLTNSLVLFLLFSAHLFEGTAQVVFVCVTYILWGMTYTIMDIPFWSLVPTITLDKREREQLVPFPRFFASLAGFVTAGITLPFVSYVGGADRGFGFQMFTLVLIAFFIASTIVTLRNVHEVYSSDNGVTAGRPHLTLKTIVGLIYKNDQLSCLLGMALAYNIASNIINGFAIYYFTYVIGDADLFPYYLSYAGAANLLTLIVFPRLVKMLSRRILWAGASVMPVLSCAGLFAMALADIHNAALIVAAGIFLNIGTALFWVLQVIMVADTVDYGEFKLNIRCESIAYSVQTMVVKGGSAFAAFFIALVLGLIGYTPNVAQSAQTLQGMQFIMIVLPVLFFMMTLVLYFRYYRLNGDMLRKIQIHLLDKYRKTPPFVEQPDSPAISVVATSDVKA

SMILES	Rh (nm), hydrodynamic radius of micelles [1]	solubilized MelB retained, percentage of total protein in untreated membrane sample ([2]; 1.5 wt % detergent, 55° C.)	MelB protein extraction / maintained solubilization [2, 4]	CMC [3]	CMC (wt %) [3]	MelB protein extraction efficiency [2, 5]	micelle size compared with DDM [1]	size distribution of micelles (number of micelle sets) [1]	MelBSt stabilization ability compared with DDM [2]	MelB protein extraction efficiency [2, 6]	MelB protein extraction ([2]; 1.5 wt % detergent, 65° C., 90 minutes)
CCCCCCCCCCCCCCC(CO[C@@H]1OC(CO)[C@@H](O[C@H]2OC(CO)[C@@H](O)C(O)C2O)C(O)C1O)(CO[C@@H]1OC(CO)[C@@H](O[C@H]2OC(CO)[C@@H](O)C(O)C2O)C(O)C1O)Cc1cccc(C[C@](CCCCCCCCCCCCCC)(CO[C@@H]2OC(CO)[C@@H](O[C@H]3OC(CO)[C@@H](O)C(O)C3O)C(O)C2O)CO[C@@H]2OC(CO)[C@@H](O[C@@H]3OC(CO)[C@@H](O)C(O)C3O)C(O)C2O)c1 (stereo partly shown) [M-XMA-C14]	3.6 ± 0.07 nm	approximately 70%	most effective	~2.5 µM	~0.0005 wt %						
CCCCCCCCCCCCCCCC[C@@](CO[C@@H]1OC(CO)[C@@H](O[C@H]2OC(CO)[C@@H](O)C(O)C2O)C(O)C1O)(CO[C@@H]1OC(CO)[C@@H](O[C@@H]2OC(CO)[C@@H](O)C(O)C2O)C(O)C1O)Cc1cccc(C[C@](CCCCCCCCCCCCCCCC)(CO[C@@H]2OC(CO)[C@@H](O[C@H]3OC(CO)[C@@H](O)C(O)C3O)C(O)C2O)CO[C@@H]2CC(CO)[C@@H](O[C@H]3OC(CO)[C@@H](O)C(O)C3O)C(O)C2O)c1 (stereo partly shown) [M-XMA-C16]	3.9 ± 0.04 nm			~2.0 µM	~0.0004 wt %	protein extraction efficiency at almost the same level as DDM					
CCCCCCCCCCCCCCCCCCC(CO[C@@H]1OC(CO)[C@@H](O[C@@H]2OC(CO)[C@@H](O)C(O)C2O)C(O)C1O)(CO[C@@H]1OC(CO)[C@@H](O[C@@H]2OC(CO)[C@@H](O)C(O)C2O)C(O)C1O)Cc1cccc(CC(CCCCCCCCCCCCCCCCCC)(CO[C@@H]2OC(CO)[C@@H](O[C@@H]3OC(CO)[C@@H](O)C(O)C3O)C(O)C2O)CO[C@@H]2OC(CO)[C@@H](O[C@@H]3OC(CO)[C@@H](O)C(O)C3O)C(O)C2O)c1 (stereo partly shown) [M-XMA-C18]	4.1 ± 0.04 nm			~1.5 µM	~0.0003 wt %	protein extraction efficiency at almost the same level as DDM					
CCCCCCCCCCCC(CO[C@@H]1OC(CO)[C@@H](O[C@@H]2OC(CO)[C@@H](O)C(O)C2O)C(O)C1O)(CO[C@@H]1OC(CO)[C@@H](O[C@@H]2OC(CO)[C@@H](O)C(O)C2O)C(O)C1O)Cc1ccccc1C[C@](CCCCCCCCCCC)(CO[C@@H]1OC(CO)[C@@H](O[C@H]2OC(CO)[C@@H](O)C(O)C2O)C(O)C1O)CO[C@@H]1OC(CO)[C@@H](O[C@@H]2OC(CO)[C@@H](O)C(O)C2O)C(O)C1O (stereo partly shown) [O-XMA-C11]	3.0 ± 0.02 nm				~0.0019 wt %						
CCCCCCCCCCCCCCC(CO[C@@H]1OC(CO)[C@@H](O[C@@H]2OC(CO)[C@@H](O)C(O)C2O)C(O)C1O)(CO[C@@H]1OC(CO)[C@@H](O[C@@H]2OC(CO)[C@@H](O)C(O)C2O)C(O)C1O)Cc1ccccc1CC(CCCCCCCCCCCCCC)(CO[C@@H]1OC(CO)[C@@H](O[C@@H]2OC(CO)[C@@H](O)C(O)C2O)C(O)C1O)CO[C@@H]1OC(CO)[C@@H](O[C@@H]2OC(CO)[C@@H](O)C(O)C2O)C(O)C1O (stereo partly shown) [O-XMA-C14]	3.5 ± 0.04 nm			~3.0 µM	~0.0006 wt %						
CCCCCCCCCCCCCCCCC(CO[C@@H]1OC(CO)[C@@H](O[C@@H]2OC(CO)[C@@H](O)C(O)C2O)C(O)C1O)(CO[C@@H]1OC(CO)[C@@H](O[C@@H]2OC(CO)[C@@H](O)C(O)C2O)C(O)C1O)Cc1ccccc1CC(CCCCCCCCCCCCCCCC)(CO[C@@H]1OC(CO)[C@@H](O[C@@H]2OC(CO)[C@@H](O)C(O)C2O)C(O)C1O)CO[C@@H]1OC(CO)[C@@H](O[C@@H]2OC(CO)[C@@H](O)C(O)C2O)C(O)C1O (stereo partly shown) [O-XMA-C16]	3.9 ± 0.06 nm			~2.0 µM	~0.0004 wt %						
CCCCCCCCCCCCCCCCCCC(CO[C@@H]1OC(CO)[C@@H](O[C@@H]2OC(CO)[C@@H](O)C(O)C2O)C(O)C1O)(CO[C@@H]1OC(CO)[C@@H](O[C@@H]2OC(CO)[C@@H](O)C(O)C2O)C(O)C1O)Cc1ccccc1CC(CCCCCCCCCCCCCCCCCC)(CO[C@@H]1OC(CO)[C@@H](O[C@@H]2OC(CO)[C@@H](O)C(O)C2O)C(O)C1O)CO[C@@H]1OC(CO)[C@@H](O[C@@H]2OC(CO)[C@@H](O)C(O)C2O)C(O)C1O (stereo partly shown) [O-XMA-C18]	3.9 ± 0.04 nm				~0.0003 wt %						
CCCCCCCCC(CO[C@@H]1OC(CO)[C@@H](O[C@H]2OC(CO)[C@@H](O)C(O)C2O)C(O)C1O)(CO[C@@H]1OC(CO)[C@@H](O[C@H]2OC(CO)[C@@H](O)C(O)C2O)C(O)C1O)Cc1ccc(C[C@](CCCCCCCC)(CO[C@H]2CC(O)[C@H](O[C@H]3OC(CO)[C@@H](O)C(O)C3O)C(CO)O2)CO[C@@H]2OC(CO)[C@@H](O[C@H]3OC(CO)[C@@H](O)C(O)C3O)C(O)C2O)cc1 (stereo partly shown) [P-XMA-C8]	2.7 nm and 2.7 ± 0.04 nm				~0.004 wt %		smaller than DDM	one set of micelles			
CCCCCCCCCC(CO[C@@H]1OC(CO)[C@@H](O[C@H]2OC(CO)[C@@H](O)C(O)C2O)C(O)C1O)(CO[C@@H]1OC(CO)[C@@H](O[C@H]2OC(CO)[C@@H](O)C(O)C2O)C(O)C1O)Cc1ccc(CC(CCCCCCCCC)(CO[C@@H]2OC(CO)[C@@H](O[C@H]3OC(CO)[C@@H](O)C(O)C3O)C(O)C2O)CO[C@@H]2OC(CO)[C@@H](O[C@H]3OC(CO)[C@@H](O)C(O)C3O)C(O)C2O)cc1 (stereo partly shown) [P-XMA-C9]	3.2 ± 0.01 nm		higher MelBSt extraction ability than DDM	~10 µM	~0.002 wt %		smaller than DDM	one set of micelles	higher MelBSt stabilization ability than DDM	extraction efficiency at the same level as DDM	
CCCCCCCCCCC(CO[C@@H]1OC(CO)[C@@H](O[C@H]2OC(CO)[C@@H](O)C(O)C2O)C(O)C1O)(CO[C@@H]1OC(CO)[C@@H](O[C@H]2OC(CO)[C@@H](O)C(O)C2O)C(O)C1O)Cc1ccc(CC(CCCCCCCCCC)(CO[C@@H]2OC(CO)[C@@H](O[C@H]3OC(CO)[C@@H](O)C(O)C3O)C(O)C2O)CO[C@@H]2OC(CO)[C@@H](O[C@H]3OC(CO)[C@@H](O)C(O)C3O)C(O)C2O)cc1 (stereo partly shown) [P-XMA-C10]	3.5 ± 0.01 nm		higher MelBSt extraction ability than DDM	~7 µM	~0.001 wt %			two sets of micelles having different radii	higher MelBSt stabilization ability than DDM	extraction efficiency at the same level as DDM	extracted MelBSt

Reference: patent US10647738B2, “Xylene-based amphiphilic compound and use thereof” (Industry-University Cooperation Foundation Hanyang …, priority 2016, dated 2020)
